The numbers were not newly measured in PMC7914841, “Systemic Delivery of hGhrelin Derivative by Lyophilizate for Dry Powder Inhalation System in Monkeys” (Pharmaceutics, 2021), which cites them from elsewhere.

Where no end group is shown, it is not given here. The star is where a group is joined. Octanoyl = CCCCCCCC(=O)*

The series deals with growth hormone (GH) release. As to conditions: healthy humans, intravenously injected.

For the substance “ghrelin: peptide hormone of 28 amino acids, O-n-octanoylated at the 3rd serine residue (GSS(Octanoyl)FLSPEHQRVQQRKESKKPPAKLQPR; UniProt Q9UBU3 24-51, looked up)”, the “ratio of AUC of GH, 5 µg/kg vs 1 µg/kg” value was 1.3–1.6 times.
